The results in this text go back to the PolyMetriX glass transition set.

The compound `*/C=C(/*)CCCOc1ccc(OC(=O)c2ccc(OC)cc2)cc1` (repeat unit) returned a glass transition temperature of 20.00 °C.
`*C(=O)NCCCCCCNC(=O)c1ccc(*)nc1` (repeat unit) showed a glass transition temperature of 80.00 °C.
In the case of `*C(=O)NCCN(CCNC(=O)c1cccc(N2C(=O)c3ccc(*)cc3C2=O)c1)c1ccc(/C=C/c2ccc([N+](=O)[O-])cc2)cc1` (repeat unit), the glass transition temperature worked out at 178.00 °C.
Next, `*C(=O)c1cc(C(=O)c2ccc3c(c2)C(=O)N(c2ccc(C(c4ccc(N5C(=O)c6ccc(*)cc6C5=O)cc4)(C(F)(F)F)C(F)(F)F)cc2)C3=O)cc(-c2ccccc2)c1` (repeat unit): 260.50 °C.
The figure for `*C(=O)c1cc2c(cc1Cl)C(=O)N(c1cc(Cl)c(N3C(=O)c4cc(*)c(Cl)cc4C3=O)cc1Cl)C2=O` (repeat unit) is 367.00 °C.
In turn, `*CC(F)(F)C(F)(F)C(F)(F)COC(=O)NCCCCCCNC(=O)O*` (repeat unit) displayed a glass transition temperature of 16.00 °C.
`*CCCC1(CCCNC(=O)c2ccccc2-c2ccccc2C(=O)N*)c2ccccc2-c2ccccc21` (repeat unit) registered a glass transition temperature of 165.00 °C.
For the compound `*CCCCCCCCCCCCCCCCCCNC(=O)NCc1ccc(CNC(=O)N*)cc1` (repeat unit), the glass transition temperature came to 52.00 °C.
The figure for `*CCCCCCCCCCCCNC(=O)NCCCCCCNC(=O)N*` (repeat unit) is 49.00 °C.
As to `*CCCCCCCCCCCCNC(=O)c1ccc(C(=O)N*)c(Sc2ccccc2)c1` (repeat unit), the glass transition temperature was 92.00 °C.
`*CCCCCCCCCCCCOC(=O)NCCCCCCCCCCNC(=O)O*` (repeat unit) registered a glass transition temperature of 34.00 °C.
Take `*CCCCCCCCCCNC(=O)c1ccc(C(=O)N*)c(Sc2ccccc2)c1` (repeat unit): the glass transition temperature worked out at 100.00 °C.
Regarding `*CCCCCCCCCCOC(=O)NCCCCCCNC(=O)O*` (repeat unit), the glass transition temperature is 55.00 °C.
Consider `*CCCCCCCCNC(=O)c1ccc(C(=O)N*)c(Oc2ccccc2)c1` (repeat unit), for which the glass transition temperature is 96.00 °C.
Regarding `*CCCCCCCCOC(=O)NCCCCCCNC(=O)O*` (repeat unit), the glass transition temperature amounted to 58.00 °C.
In the case of `*CCCCCCNC(=O)NCc1ccc(CNC(=O)N*)cc1` (repeat unit), the glass transition temperature is 72.00 °C.
`*CCCCCCNC(=O)c1ccccc1-c1ccccc1C(=O)N*` (repeat unit) yielded a glass transition temperature of 122.50 °C.
`*CCCCCCOC(=O)NCCCCNC(=O)O*` (repeat unit) came in with a glass transition temperature of 16.00 °C.
In turn, `*CCCCCOC(=O)c1ccccc1C(=O)[O][Cd][O]C(=O)c1ccccc1C(=O)OCCCCCOC(=O)NCCCCCCNC(=O)O*` (repeat unit) returned a glass transition temperature of -6.80 °C.
As to `*CCCCNC(=O)c1ccc(C(=O)N*)c(Sc2ccccc2)c1` (repeat unit), the glass transition temperature is 136.00 °C.
The figure for `*CCCNC(=O)O*` (repeat unit) is 26.00 °C; for `*CCCNC(=O)c1ccc(C(=O)N*)cc1` (repeat unit) it is 180.00 °C; for `*CCNC(=O)c1ccc(C(=O)N*)c(Sc2ccccc2)c1` (repeat unit) it is 172.00 °C.
In the case of `*CCNC(=O)c1ccccc1O*` (repeat unit), the glass transition temperature was 84.00 °C.
In turn, `*CCOCCOC(=O)NCCCCCCNC(=O)O*` (repeat unit) displayed a glass transition temperature of 17.00 °C.
`*CCOCCOCCOC(=O)NCCCCCCNC(=O)O*` (repeat unit) displayed a glass transition temperature of -6.50 °C.
`*CCOCCOCCOCCOCCOCCOc1ccc(C(=O)Nc2cc(NC(=O)c3ccc(O*)cc3)cc(-c3nc4ccccc4[nH]3)c2)cc1` (repeat unit) showed a glass transition temperature of 125.00 °C.
`*CCOCCOCCOCCOCCOc1ccc(C(=O)Nc2cc(NC(=O)c3ccc(O*)cc3)cc(-c3nc4ccccc4[nH]3)c2)cc1` (repeat unit) yielded a glass transition temperature of 145.00 °C.
For the compound `*CCOCCOCCOc1ccc(C(=O)Nc2cc(NC(=O)c3ccc(O*)cc3)cc(-c3nc4ccccc4[nH]3)c2)cc1` (repeat unit), the glass transition temperature amounted to 165.00 °C.
Compound `*CCOCCOc1ccc(C(=O)Nc2cc(NC(=O)c3ccc(O*)cc3)cc(-c3nc4ccccc4[nH]3)c2)cc1` (repeat unit) came in with a glass transition temperature of 230.00 °C.
Compound `*CCOc1ccc(C(=O)Nc2cc(NC(=O)c3ccc(O*)cc3)cc(-c3nc4ccccc4[nH]3)c2)cc1` (repeat unit) had a glass transition temperature of 275.00 °C.
`*CNC(=O)OCC(OC(=O)NCc1ccc(*)o1)c1ccco1` (repeat unit): the glass transition temperature came to 30.00 °C.
Next, `*COC(=O)NCc1ccc(CNC(=O)OCc2ccc(*)o2)o1` (repeat unit): 75.00 °C; `*NCCCCCCNc1nc(*)nc(-c2ccccc2)n1` (repeat unit): 95.00 °C; `*NNC(=O)c1ccccc1C(=O)NCCCCCCNC(=O)c1ccccc1C(*)=O` (repeat unit): 224.50 °C.
As to `*Nc1cc(NC(=O)NC2CCC(CC3CCC(NC(*)=O)CC3)CC2)cc(C(=O)Nc2cccc3c2C(=O)c2ccccc2C3=O)c1` (repeat unit), the glass transition temperature came to 156.00 °C.
Next, `*Nc1cc(NC(=O)c2ccc(-c3ccc(C(*)=O)cc3)cc2)cc(-c2nnc(-c3ccccn3)o2)c1` (repeat unit): 120.00 °C; `*Nc1cc(NC(=O)c2ccc(C(*)=O)cc2)cc(-c2nnc(-c3ccccn3)o2)c1` (repeat unit): 230.00 °C.
`*Nc1cc(NC(=O)c2ccc(C(*)=O)cc2)cc(C(=O)Oc2ccccc2)c1` (repeat unit): the glass transition temperature was determined as 200.00 °C.
`*Nc1ccc(Cc2ccc(NC(=O)NCCCCCCCCCCNC(*)=O)cc2)cc1` (repeat unit) gave a glass transition temperature of 46.00 °C.
For `*Nc1ccc(Cc2ccc(NC(=O)NCCCCCCCCNC(*)=O)cc2)cc1` (repeat unit), the glass transition temperature amounted to 50.00 °C.
The compound `*Nc1ccc(N[Se]*)cc1` (repeat unit) displayed a glass transition temperature of 55.00 °C.
Take `*Nc1cccc2c(NC(=O)Nc3cc(NC(*)=O)cc(C(=O)Nc4ccc5c(c4)C(=O)c4ccccc4C5=O)c3)cccc12` (repeat unit): the glass transition temperature came to 178.00 °C.
Compound `*Nc1cccc2c(NC(=O)Nc3cc(NC(*)=O)cc(C(=O)Nc4cccc5c4C(=O)c4ccccc4C5=O)c3)cccc12` (repeat unit) returned a glass transition temperature of 185.00 °C.
`*Nc1ccccc1CCc1ccc(NC(=O)NCCCCCCNC(*)=O)cc1` (repeat unit) displayed a glass transition temperature of 150.00 °C.
`*OC(COC(=O)NCCCCCCNC(*)=O)c1ccco1` (repeat unit): the glass transition temperature came to 17.00 °C.
In turn, `*[O][Ca][O]C(=O)c1ccccc1C(=O)OCCCCCOC(=O)NCCCCCCNC(=O)OCCCCCOC(=O)c1ccccc1C(*)=O` (repeat unit) showed a glass transition temperature of -2.40 °C.
`*Oc1ccc(-c2ccc(Oc3ccc(C(=O)c4c(C(=O)c5ccc(*)cc5)c(-c5ccc(F)cc5)c(-c5ccc(F)cc5)c(-c5ccc(F)cc5)c4-c4ccc(F)cc4)cc3)cc2)cc1` (repeat unit) gave a glass transition temperature of 275.00 °C.
For the compound `*Oc1ccc(-c2ccc(Oc3ccc(C(=O)c4c(C(=O)c5ccc(*)cc5)c(-c5ccccc5)c(-c5ccc6ccccc6c5)c(-c5ccc6ccccc6c5)c4-c4ccccc4)cc3)cc2)cc1` (repeat unit), the glass transition temperature was determined as 290.00 °C.
The figure for `*Oc1ccc(C(=O)NNC(=O)c2ccc(C(=O)NNC(=O)c3ccc(OC(=O)c4cccc(C(*)=O)c4)cc3)cc2)cc1` (repeat unit) is 175.00 °C.
`*Oc1ccc(C(=O)NNC(=O)c2cccc(C(=O)NNC(=O)c3ccc(OC(=O)c4cccc(C(*)=O)c4)cc3)c2)cc1` (repeat unit) registered a glass transition temperature of 180.00 °C.
Regarding `*Oc1ccc(C(=O)Nc2cc(NC(=O)c3ccc(*)cc3)cc(-c3nc4ccccc4[nH]3)c2)cc1` (repeat unit), the glass transition temperature was 335.00 °C.
`*Oc1ccc(C(c2ccc(Oc3ccc(C(=O)c4c(C(=O)c5ccc(*)cc5)c(-c5ccccc5)c(-c5ccc6ccccc6c5)c(-c5ccc6ccccc6c5)c4-c4ccccc4)cc3)cc2)(C(F)(F)F)C(F)(F)F)cc1` (repeat unit) showed a glass transition temperature of 275.00 °C.
`*Oc1ccc(C2(c3ccc(Oc4ccc(C(=O)c5c(C(=O)c6ccc(*)cc6)c(-c6ccc(F)cc6)c(-c6ccc(F)cc6)c(-c6ccc(F)cc6)c5-c5ccc(F)cc5)cc4)cc3)c3ccccc3-c3ccccc32)cc1` (repeat unit) displayed a glass transition temperature of 293.00 °C.
The figure for `*Oc1ccc(CCNC(=O)c2cccc(C(*)=O)c2)cc1` (repeat unit) is 152.00 °C; for `*Oc1ccc(CCNC(=O)c2cccc(C(=O)NCCc3ccc(OC(=O)c4cccc(C(*)=O)c4)cc3)c2)cc1` (repeat unit) it is 147.00 °C.
Compound `*Oc1ccc(CNC(=O)c2cccc(C(=O)NCc3ccc(OC4COC5C(*)COC45)cc3)c2)cc1` (repeat unit) returned a glass transition temperature of 83.00 °C.
The figure for `*Oc1ccc(Oc2ccc(C(=O)c3c(C(=O)c4ccc(*)cc4)c(-c4ccc(F)cc4)c(-c4ccc(F)cc4)c(-c4ccc(F)cc4)c3-c3ccc(F)cc3)cc2)cc1` (repeat unit) is 266.00 °C.
`*Oc1ccc(S(=O)(=O)c2ccc(Oc3ccc(C(=O)c4cc(Br)cc(C(=O)c5ccc(*)cc5)c4)cc3)cc2)cc1` (repeat unit): the glass transition temperature came out at 192.00 °C.
As to `*c1ccc(C(=O)NCCCCCCCCCCNC(=O)c2ccc(-c3nc4ccccc4nc3*)cc2)cc1` (repeat unit), the glass transition temperature was 166.00 °C.
Compound `*c1ccc(C(=O)NCCCCCCNC(=O)c2ccc(-c3nc4ccccc4nc3*)cc2)cc1` (repeat unit) gave a glass transition temperature of 201.00 °C.
On to `*c1cccc(S(=O)(=O)NCCCCNS(*)(=O)=O)c1` (repeat unit), for which the glass transition temperature turned out to be 82.00 °C.
In the case of `*c1cccc(S(=O)(=O)NCCCNS(*)(=O)=O)c1` (repeat unit), the glass transition temperature was determined as 92.00 °C.
